The values below come from ChEMBL document CHEMBL4402577, “Discovery and Optimization of a Compound Series Active against Trypanosoma cruzi, the Causative Agent of Chagas Disease” (J Med Chem, 2020).

Converted amounts (≈) assume the structure as drawn.

Usually EC50 stands for the concentration that produces a half-maximal response. A higher EC50 goes with a less potent agent.

The test system of one data set is Trypanosoma cruzi. Description: Antitrypanosomal activity against Trypanosoma cruzi Tulahuen strain C2C4 trypomastigotes infected in rat L6 cells incubated for 96 hrs by photometric method based assay. In kind it is functional, organism-based. The settings on record: Tulahuen strain C2C4, L6, 96 h.
In a further data set the test system is L6. Description: Cytotoxicity against rat L6 cells incubated for 70 hrs by resazurin dye based assay. The class given is cell-based. The settings on record: L6, 70 h.
Data set [1] is described as follows: Selectivity ratio, EC50 for cytotoxicity against rat L6 cells to EC50 for antitrypanosomal activity against Trypanosoma cruzi Tulahuen strain C2C4 trypomastigotes infected in rat L6 cells. The class given is toxicity, cell-based. The note with it: read-out: Ratio EC50.
Data set [2] can be described thus: Intrinsic clearance in CD1 mouse liver microsomes at 0.5 uM measured up to 30 mins in presence of NADPH by UPLC-MSMS analysis. The class given is ADME, Microsome. The settings on record: 0.5 h. For orientation: Liver microsomes are a subcellular fraction often used to study metabolism.
Data set [3] is described as follows: Kinetic aqueous solubility of compound in DMSO by nephelometric analysis. In kind it is physicochemical. The note with it: read-out: Kinetic_solubility.

For `CC(=O)Nc1ccc2[nH]c(=O)n(C3CCCCCC3)c(=O)c2c1`, the values for the EC50 in the data set on Trypanosoma cruzi and in the data set on L6 were 2.1 µM and 112 µM, respectively. Also, the selectivity ratio in data set [1] amounted to 53.
For the compound `CC(C)[C@H]1CC[C@H](n2c(=O)[nH]c3ccc(N)cc3c2=O)CC1`, the EC50 with Trypanosoma cruzi came to 0.027 µM; in the data set on L6 it was 22 µM. Also, the selectivity ratio in data set [1] came out at 810.
On to `CC(=O)Nc1ccc2[nH]c(=O)n([C@H]3CC[C@H](C(F)(F)F)CC3)c(=O)c2c1`, for which the EC50 in the data set with Trypanosoma cruzi came to 0.35 µM; in the data set on L6 it was 9.5 µM. Further, the selectivity ratio in data set [1] was 27. Besides, the intrinsic clearance in data set [2] was below 0.5 mL/min/g.
For the compound `Cc1noc(C)c1-c1ccc2[nH]c(=O)n(CCC3CCCCC3)c(=O)c2c1`, the EC50 in the data set on Trypanosoma cruzi is 120 µM; in the data set with L6 it was 88 µM.
Consider `CCCCCCn1c(=O)[nH]c2ccc(NC(C)=O)cc2c1=O`, for which the EC50 in the data set on Trypanosoma cruzi was determined as 2.9 µM; with L6, 154 µM. Besides, the selectivity ratio in data set [1] was 53.
The matching figures for `CC(=O)Nc1ccc2[nH]c(=O)n([C@H]3CC[C@H](C(C)(C)F)CC3)c(=O)c2c1`: 2.6 µM, 17 µM and 6.5.
With `CC(=O)Nc1ccc2[nH]c(=O)n(C3CCN(C(=O)OC(C)(C)C)CC3)c(=O)c2c1`, the values for the concentration for a half-maximal effect (EC50) with Trypanosoma cruzi and in the data set on L6 were 30 µM and 127 µM, respectively. Besides, the selectivity ratio in data set [1] amounted to 4.2.
For `CC(=O)Nc1ccc2[nH]c(=O)n(C3CCC(C(C)(C)C)C3)c(=O)c2c1` (racemic), the EC50 with Trypanosoma cruzi amounted to 0.02 µM; with L6 it was 41 µM. Besides, the selectivity ratio in data set [1] came out at 2100. In data set [2], the intrinsic clearance amounted to 31 mL/min/g.
As to `CC(=O)Nc1ccc2[nH]c(=O)n(Cc3ccccc3)c(=O)c2c1`, the EC50 in the data set with Trypanosoma cruzi was 17 µM; with L6, 148 µM. For the same compound, the selectivity ratio in data set [1] amounted to 9.
As for `CC(=O)Nc1ccc2[nH]c(=O)n(CC3CCCCC3)c(=O)c2c1`, the values for the EC50 in the data set on Trypanosoma cruzi and in the data set on L6 were 2.3 µM and 54 µM, respectively. The selectivity ratio in data set [1] turned out to be 23.
Take `CC(=O)Nc1ccc2[nH]c(=O)n(-c3ccc(C(C)(C)C)cc3)c(=O)c2c1`: the figures for the EC50 in the data set on Trypanosoma cruzi and in the data set with L6 were 4.3 µM and 17 µM, respectively. Further, the selectivity ratio in data set [1] amounted to 4.
The corresponding values for `CC(=O)Nc1ccc2[nH]c(=O)n(CCc3ccccc3)c(=O)c2c1` are 1.1 µM, 139 µM and 130.
With `CC(=O)Nc1cnc2[nH]c(=O)n([C@H]3CC[C@H](C(C)C)CC3)c(=O)c2c1`, the EC50 in the data set on Trypanosoma cruzi stood at 0.061 µM; in the data set on L6 it was 32 µM. Also, the selectivity ratio in data set [1] was 520. Besides, the intrinsic clearance in data set [2] turned out to be 1.4 mL/min/g.
Turning to `CC(=O)Nc1ccc2[nH]c(=O)n([C@H]3CC[C@H](OC(C)(C)C)CC3)c(=O)c2c1`, the concentration for a half-maximal effect (EC50) worked out at 3.5 µM with Trypanosoma cruzi and 123 µM in the data set on L6. Also, the selectivity ratio in data set [1] worked out at 35. Besides, the intrinsic clearance in data set [2] is below 0.5 mL/min/g.
As to `O=c1[nH]c2ccc(-c3cccnc3)cc2c(=O)n1CCC1CCCCC1`, the concentration giving a half-maximal response (EC50) was determined as 1.9 µM in the data set with Trypanosoma cruzi and 14 µM in the data set with L6. In addition, the selectivity ratio in data set [1] was 7.4.
`CC[C@H]1CC[C@H](n2c(=O)[nH]c3ccc(N)cc3c2=O)CC1`: the EC50 with Trypanosoma cruzi came out at 0.12 µM; with L6, 32 µM. Also, in data set [1], the selectivity ratio turned out to be 270. In addition, the intrinsic clearance in data set [2] was determined as 4.2 mL/min/g.
For `CC(=O)Nc1ccc2[nH]c(=O)n(CCC3CCCCC3)c(=O)c2c1`, the 50% effective concentration (EC50) in the data set on Trypanosoma cruzi is 0.73 µM; with L6, 52 µM. In addition, the selectivity ratio in data set [1] was 110.
The corresponding values for `O=c1[nH]c2ccc(-c3ccncc3)cc2c(=O)n1CCC1CCCCC1` are 1.7 µM, 14 µM and 8.
As for `COc1cc([C@@H]2c3cc4c(cc3[C@H](O)[C@H]3COC(=O)[C@H]23)OCO4)cc(OC)c1OC` [PODOFILOX], the EC50 in the data set on L6 came out at 0.014 µM. That is a double-digit nanomolar value.
Regarding `Nc1ccc2[nH]c(=O)n(CCC3CCCCC3)c(=O)c2c1`, the EC50 was 1.9 µM with Trypanosoma cruzi and 19 µM with L6. Moreover, the selectivity ratio in data set [1] worked out at 10.
Take `CC(=O)Nc1ccc2[nH]c(=O)n(CCCC3CCCCC3)c(=O)c2c1`: the concentration giving a half-maximal response (EC50) with Trypanosoma cruzi was 0.48 µM; in the data set with L6, 87 µM. Besides, in data set [1], the selectivity ratio worked out at 180.
The matching figures for `CC(=O)Nc1ccc2[nH]c(=O)n(C3CCCC3)c(=O)c2c1`: 12 µM, 184 µM and 15.
On to `CC(=O)Nc1cnc2[nH]c(=O)n(CCC3CCCCC3)c(=O)c2c1`, for which the concentration for a half-maximal effect (EC50) is 2.3 µM in the data set with Trypanosoma cruzi and 130 µM in the data set with L6. In addition, the selectivity ratio in data set [1] was found to be 57. Besides, in data set [3], the solubility kinetic amounted to 97 µM (≈ 32 µg/mL).
Regarding `CC(=O)Nc1ccc2[nH]c(=O)n([C@H]3CC[C@@H](NC(=O)OC(C)(C)C)CC3)c(=O)c2c1`, the values for the half-maximal effective concentration (EC50) with Trypanosoma cruzi and in the data set with L6 were 2.6 µM and 118 µM, respectively. In addition, the selectivity ratio in data set [1] is 45.
Turning to `CC(=O)Nc1ccc2[nH]c(=O)n([C@H]3CCO[C@@H](C(C)(C)C)C3)c(=O)c2c1` (racemic), the half-maximal effective concentration (EC50) turned out to be 2.1 µM in the data set with Trypanosoma cruzi and 125 µM with L6. Also, the selectivity ratio in data set [1] is 60. In data set [2], the intrinsic clearance was 16 mL/min/g.
For the compound `CC(=O)Nc1ccc2[nH]c(=O)n(CCCC(C)C)c(=O)c2c1`, the half-maximal effective concentration (EC50) in the data set on Trypanosoma cruzi is 4 µM; in the data set with L6, 173 µM. Also, the selectivity ratio in data set [1] was found to be 43.
The matching figures for `N#CCc1ccc2[nH]c(=O)n(CCC3CCCCC3)c(=O)c2c1`: 2.1 µM, 70 µM and 33.
The corresponding values for `O=c1[nH]c2ccc(-c3cncnc3)cc2c(=O)n1CCC1CCCCC1` are 14 µM, 126 µM and 9.
As for `CC(=O)Nc1ccc2[nH]c(=O)n([C@H]3CC[C@@H](C(C)C)CC3)c(=O)c2c1`, the EC50 with Trypanosoma cruzi turned out to be 0.2 µM; with L6, 41 µM. Further, the selectivity ratio in data set [1] was 210. Moreover, the intrinsic clearance in data set [2] was 26 mL/min/g.
With `CC(C)(C)[C@H]1CC[C@@H](n2c(=O)[nH]c3ncc(N)cc3c2=O)CC1`, the concentration for a half-maximal effect (EC50) in the data set on Trypanosoma cruzi came to 0.24 µM; with L6, 44 µM. Further, in data set [1], the selectivity ratio was determined as 183. For the same compound, the intrinsic clearance in data set [2] is 1.6 mL/min/g.
`O=C(Cn1ccnc1[N+](=O)[O-])NCc1ccccc1` [BENZNIDAZOLE] returned a concentration giving a half-maximal response (EC50) with Trypanosoma cruzi of 1.94 µM.
As for `CC(=O)Nc1ccc2[nH]c(=O)n(C(C)(C)C)c(=O)c2c1`, the figures for the EC50 with Trypanosoma cruzi and with L6 were 61 µM and 37 µM, respectively. Moreover, the selectivity ratio in data set [1] came out at 0.6.
The matching figures for `COCCn1c(=O)[nH]c2ccc(NC(C)=O)cc2c1=O`: 35 µM, 0.1 µM and 0.003.
The matching figures for `CC(=O)Nc1ccc2[nH]c(=O)n(C3CCC(C)CC3)c(=O)c2c1` (mixture of isomers): 1.4 µM, 54 µM and 39.
The corresponding values for `CC(=O)Nc1ccc2[nH]c(=O)n(C3CCN(C(=O)OC(C)(C)C)C3)c(=O)c2c1` (racemic) are 54 µM, 170 µM and 3.1.
`CC(=O)Nc1ccc2[nH]c(=O)n(CCC(C)C)c(=O)c2c1`: the half-maximal effective concentration (EC50) was 9.7 µM with Trypanosoma cruzi and 163 µM in the data set with L6. For the same compound, in data set [1], the selectivity ratio was 17.
Consider `CC(C)(C)[C@H]1CC[C@H](n2c(=O)[nH]c3ncc(N)cc3c2=O)CC1`, for which the EC50 in the data set on Trypanosoma cruzi was 0.66 µM; in the data set with L6, 63 µM. The selectivity ratio in data set [1] worked out at 95. Also, in data set [2], the intrinsic clearance was found to be 0.5 mL/min/g.
Consider `CC(=O)Nc1ccc2[nH]c(=O)n(C(CC3CCCCC3)C(N)=O)c(=O)c2c1` (configuration not stated), for which the concentration giving a half-maximal response (EC50) in the data set on Trypanosoma cruzi stood at 170 µM; in the data set with L6, 222 µM. Besides, the selectivity ratio in data set [1] was 1.3.
Consider `CC(=O)Nc1ccc2[nH]c(=O)n(CCCc3ccccc3)c(=O)c2c1`, for which the 50% effective concentration (EC50) in the data set with Trypanosoma cruzi came out at 7.5 µM; with L6, 134 µM. The selectivity ratio in data set [1] was 18.
As to `CC(=O)Nc1ccc2[nH]c(=O)n([C@H]3CC[C@H](C(C)(C)O)CC3)c(=O)c2c1`, the EC50 with Trypanosoma cruzi turned out to be 139 µM; with L6 it was 136 µM. Moreover, the selectivity ratio in data set [1] was 0.98. Further, the solubility kinetic in data set [3] is 130 µM (≈ 46.7 µg/mL).
With `CC(=O)Nc1ccc2[nH]c(=O)n([C@H]3CO[C@H](C(C)(C)C)OC3)c(=O)c2c1`, the concentration for a half-maximal effect (EC50) in the data set on Trypanosoma cruzi was 0.58 µM; with L6, 27 µM. Besides, the selectivity ratio in data set [1] amounted to 47. In data set [2], the intrinsic clearance was below 0.5 mL/min/g.
Regarding `CC(C)(C)C(=O)Nc1ccc2[nH]c(=O)n(CCC3CCCCC3)c(=O)c2c1`, the EC50 with Trypanosoma cruzi is 7.1 µM; in the data set with L6, 13 µM. Besides, the selectivity ratio in data set [1] stood at 1.8.
The corresponding values for `CC(=O)Nc1ccc2[nH]c(=O)n(C3CCN(C(=O)c4ccccc4)CC3)c(=O)c2c1` are 140 µM, 135 µM and 1.
The matching figures for `CC(=O)Nc1ccc2[nH]c(=O)n(CCC3=CCCCC3)c(=O)c2c1`: 2.1 µM, 107 µM and 51.
As to `CC(=O)Nc1ccc2[nH]c(=O)n([C@H](C)C3CCCCC3)c(=O)c2c1`, the EC50 worked out at 2.2 µM with Trypanosoma cruzi and 88 µM in the data set on L6. For the same compound, the selectivity ratio in data set [1] was 40.
The matching figures for `CC(=O)Nc1ccc2[nH]c(=O)n(C3CCN(C(C)(C)C)CC3)c(=O)c2c1`: 220 µM, above 280 µM and 1.
For `CC(=O)Nc1ccc2[nH]c(=O)n([C@H]3CC[C@H](OC(C)C)CC3)c(=O)c2c1`, the figures for the 50% effective concentration (EC50) in the data set on Trypanosoma cruzi and in the data set with L6 were 3.1 µM and 136 µM, respectively. Moreover, the selectivity ratio in data set [1] came out at 44. The intrinsic clearance in data set [2] was below 0.5 mL/min/g.
On to `CC(=O)Nc1ccc2[nH]c(=O)n(C3CCCCC3)c(=O)c2c1`, for which the results for the concentration for a half-maximal effect (EC50) in the data set with Trypanosoma cruzi and in the data set with L6 were 4.2 µM and 70 µM, respectively. Also, the selectivity ratio in data set [1] was 17.
